Experimental data published in publication PMC5349656, “Characterization of Hedgehog Acyltransferase Inhibitors Identifies a Small Molecule Probe for Hedgehog Signaling by Cancer Cells” (ACS Chemical Biology, 2016).

Experiments:
[1] = target: T1, Hedgehog acyltransferase (Hhat) (Homo sapiens, UniProt Q5VTY9); test: YnPal palmitoylation tagging in HEK-293 Shh+ cells, spike-in SILAC quantitative proteomics (Western blot TC50 […]); format: cell-based
[2] = target: T1, Hedgehog acyltransferase (Hhat); test: YnPal palmitoylation profiling in cells by quantitative proteomics; format: cell-based

T1 sequence (Q5VTY9 whole entry): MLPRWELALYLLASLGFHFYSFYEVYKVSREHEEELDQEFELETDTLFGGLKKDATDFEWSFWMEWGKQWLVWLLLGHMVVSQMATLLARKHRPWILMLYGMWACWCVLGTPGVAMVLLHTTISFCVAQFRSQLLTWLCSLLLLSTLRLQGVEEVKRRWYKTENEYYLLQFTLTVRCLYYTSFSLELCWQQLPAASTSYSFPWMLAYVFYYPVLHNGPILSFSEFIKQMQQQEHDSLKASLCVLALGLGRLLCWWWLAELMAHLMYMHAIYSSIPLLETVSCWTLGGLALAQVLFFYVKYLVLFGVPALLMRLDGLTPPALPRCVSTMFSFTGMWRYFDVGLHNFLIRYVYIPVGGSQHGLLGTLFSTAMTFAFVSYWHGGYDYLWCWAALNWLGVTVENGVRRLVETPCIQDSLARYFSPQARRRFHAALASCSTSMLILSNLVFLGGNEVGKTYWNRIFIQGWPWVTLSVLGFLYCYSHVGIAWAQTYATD

| Structure (SMILES) | IC50 [1] [nM] | YnPal palmitoylation profiling in cells by quantitative proteomics [2] |
| --- | --- | --- |
| CCC(C)CNCC(=O)N1CCc2sccc2C1c1cccc(C)n1 (racemic) [RUSKI-201] | 730 ± 90 |  |
| C=CCNCC(=O)N1CCc2sccc2C1COc1ccc(Cl)cc1 (centres unmarked) [RUSKI-41] |  | RUSKI-41 also inhibited only Hh palmitoylation (Supporting Information Figure S6, Table S2) |
